# From paper PMC12080252, “Daphnia magna as an Alternative Model for (Simultaneous) Bioaccumulation and Chronic Toxicity Assessment—Controlled Exposure Study Indicates High Hazard of Heterocyclic PAHs” (Environmental Science & Technology, 2025)
# Values joined by “and” are separate entries in the source; they are usually repeats but may differ in a detail not shown here. Equal entries are not always repeated. Where two headings read alike, the source gives them in different places.
# Legend:
# [1] = tested on: D. magna; details: Table S1; footnote not given; cited from earlier work
# [2] = tested on: Daphnia magna; assay type: in vivo; details: for % inhibition, avr.: average of vessels; for #dead offspring per mother / #live offspring per mother: per vessel; for appearance of mother: vessel 3; for body burden at the end of the depuration phase: 12-day depuration; for log BAF*L5%: 21 days of exposure, assuming steady-state; for % reproductive inhibition: Fig. S10; for body burden: after 21-day exposure; for removed fraction of accumulated body burden: after 12 days of depuration
# Description: To maximize data output, we combined chronic toxicity and bioaccumulation tests in an integrated approach where the chronic toxicity test also served as an uptake phase followed by a depuration/recovery phase (Table S3). This simultaneous bioaccumulation/chronic toxicity test was performed for BNT and DNF. Of the 10 replicates per exposure level, five animals were sampled on day 21 to measure accumulated chemical concentrations and wet weights. The remaining five were transferred to clean media without test chemicals for a 12-day depuration phase under conditions identical with the uptake phase except for the absence of test chemicals. Juvenile counts were recorded daily. At the end of the depuration period, five Daphnia were collected, weighed, and analyzed for body burden (i.e., concentration of test chemical per unit of body weight) using the extraction procedure described in Section 2.7.
# For quantification of body burdens, 5 daphnids were thawed, homogenized in 5 mL Milli-Q water (IKA T-25 digital Ultra-TURRAX) and extracted twice with 2 mL of hexane. The extracts were combined, dried with Na2SO4, concentrated under a nitrogen stream, and spiked with internal standard.
# [3] = after 11.96 µg/L, depuration phase day 1
# [4] = after 11.96 µg/L, depuration phase day 9
# [5] = after DNF 1.43 µg/L exposure, 12-day depuration phase
compound,measurement,setting,value
"c1ccc2c(c1)ccc1[nH]c3ccccc3c12 [BCRB, 7H-benzo[c]carbazole]",lowest PNEC*,[1],0.017 µg/L
"c1ccc2c(c1)ccc1sc3ccccc3c12 [BNT, benzo[b]naphtho[1,2-d]thiophene]",%offspring mortality,"[2]; 11.96 µg/L, 21-day exposure",28.01%
same,#total live offspring,"[2]; 11.96 µg/L, all vessels, exposure day 9",32
same,#total live offspring,"[2]; 11.96 µg/L, all vessels, exposure day 12",46
same,#total live offspring,"[2]; 11.96 µg/L, all vessels, exposure day 13",42
same,#total live offspring,"[2]; 11.96 µg/L, all vessels, exposure day 14",15
same,#total live offspring,"[2]; 11.96 µg/L, all vessels, exposure day 15",0
same,#total live offspring,"[2]; 11.96 µg/L, all vessels, exposure day 16",77
same,#total live offspring,"[2]; 11.96 µg/L, all vessels, exposure day 19",56
same,#total live offspring,"[2]; 11.96 µg/L, all vessels, exposure day 20",46
same,#total live offspring,"[2]; 11.96 µg/L, all vessels, exposure day 21",20
same,#total live offspring,"[2]; 11.96 µg/L, all vessels, whole 21-day exposure",329
same,average increase of live offspring,"[2]; 11.96 µg/L, cumulative, exposure day 9",3.2
same,average increase of live offspring,"[2]; 11.96 µg/L, cumulative, exposure day 12",8
same,average increase of live offspring,"[2]; 11.96 µg/L, cumulative, exposure day 13",12
same,average increase of live offspring,"[2]; 11.96 µg/L, cumulative, exposure day 14",14
same,average increase of live offspring,"[2]; 11.96 µg/L, cumulative, exposure day 15",14
same,average increase of live offspring,"[2]; 11.96 µg/L, cumulative, exposure day 16",23
same,average increase of live offspring,"[2]; 11.96 µg/L, cumulative, exposure day 19",29
same,average increase of live offspring,"[2]; 11.96 µg/L, cumulative, exposure day 20",34
same,average increase of live offspring,"[2]; 11.96 µg/L, cumulative, exposure day 21",36
same,"% inhibition, avr.","[2]; 11.96 µg/L, live offspring, 21-day exposure",49.3%
same,#average live offspring,"[2]; 11.96 µg/L, per mother, 21-day exposure",36
same,#dead offspring per mother,"[2]; 11.96 µg/L, exposure day 15",0
same,#live offspring per mother,"[2]; 11.96 µg/L, exposure day 15",0
same,appearance of mother,"[2]; 11.96 µg/L, exposure day 5",very small/pale
same,appearance of mother,"[2]; 11.96 µg/L, exposure day 7",very small
same,status of mother,"[2]; 11.96 µg/L, vessel 4, exposure day 13",dead
same,body burden at the end of the depuration phase,[2],below the LOQ
same,log BAF*L5%,[2],4.58 ± 0.05 and 4.58
same,% reproductive inhibition,"[2]; BNT 4.3 µg/L, entire test (days 1-33)",20%
same,% reproductive inhibition,"[2]; BNT 4.3 µg/L, only depuration phase (days 21-33)",6%
same,% reproductive inhibition,"[2]; BNT 4.3 µg/L, only uptake phase (days 0-21)",36%
same,"% inhibition, avr.","[2]; BNT 4.72 µg/L, 21-day exposure",35.5%
same,% reproductive inhibition,"[2]; BNT 12 µg/L, entire test (days 1-33)",32%
same,% reproductive inhibition,"[2]; BNT 12 µg/L, only depuration phase (days 21-33)",15%
same,% reproductive inhibition,"[2]; BNT 12 µg/L, only uptake phase (days 0-21)",49%
same,%offspring mortality,"[2]; after 11.96 µg/L, 12-day depuration phase",3.94%
same,#total live offspring,"[2]; after 11.96 µg/L, all vessels, depuration phase day 1",0
same,#total live offspring,"[2]; after 11.96 µg/L, all vessels, depuration phase day 2",61
same,#total live offspring,"[2]; after 11.96 µg/L, all vessels, depuration phase day 5",35
same,#total live offspring,"[2]; after 11.96 µg/L, all vessels, depuration phase day 6",63
same,#total live offspring,"[2]; after 11.96 µg/L, all vessels, depuration phase day 7",37
same,#total live offspring,"[2]; after 11.96 µg/L, all vessels, depuration phase day 8",1
same,#total live offspring,"[2]; after 11.96 µg/L, all vessels, depuration phase day 9",0
same,#total live offspring,"[2]; after 11.96 µg/L, all vessels, depuration phase day 12",120
same,#total live offspring,"[2]; after 11.96 µg/L, all vessels, whole 12-day depuration phase",317
same,average increase of live offspring,"[2]; after 11.96 µg/L, cumulative since exposure start, depuration phase day 1",36
same,average increase of live offspring,"[2]; after 11.96 µg/L, cumulative since exposure start, depuration phase day 2",48
same,average increase of live offspring,"[2]; after 11.96 µg/L, cumulative since exposure start, depuration phase day 5",55
same,average increase of live offspring,"[2]; after 11.96 µg/L, cumulative since exposure start, depuration phase day 6",68
same,average increase of live offspring,"[2]; after 11.96 µg/L, cumulative since exposure start, depuration phase day 7",75
same,average increase of live offspring,"[2]; after 11.96 µg/L, cumulative since exposure start, depuration phase day 8",76
same,average increase of live offspring,"[2]; after 11.96 µg/L, cumulative since exposure start, depuration phase day 9",76
same,average increase of live offspring,"[2]; after 11.96 µg/L, cumulative since exposure start, depuration phase day 12",100
same,#average live offspring,"[2]; after 11.96 µg/L, per mother, 12-day depuration phase",63
same,#dead offspring per mother,[2]; [3],0
same,#live offspring per mother,[2]; [3],0
same,#dead offspring per mother,"[2]; after 11.96 µg/L, depuration phase day 8",0
same,#dead offspring per mother,[2]; [4],0
same,#live offspring per mother,[2]; [4],0
same,body burden,[2]; CW = 4.7 μg L^–1,50 mg kg^–1
same,body burden,[2]; CW = 12 μg L^–1,150 mg kg^–1 wet weight
same,removed fraction of accumulated body burden,[2],≥ 99.98%
"c1ccc2c(c1)ccc1oc3ccc4ccccc4c3c12 [DNF, dinaphtho[2,1-b:1′,2′-d]furan]",body burden at the end of the depuration phase,[2],below the LOQ
same,log BAF*L5%,[2],4.20
same,% reproductive inhibition,"[2]; DNF 1.43 µg/L, entire test (days 1-33)",35%
same,% reproductive inhibition,"[2]; DNF 1.43 µg/L, only depuration phase (days 21-33)",14%
same,% reproductive inhibition,"[2]; DNF 1.43 µg/L, only uptake phase (days 0-21)",57%
same,%offspring mortality,"[2]; DNF 1.43 µg/L, 21-day exposure",42.26%
same,"% inhibition, avr.","[2]; DNF 1.43 µg/L, 21-day exposure",57.5%
same,#average live offspring,"[2]; DNF 1.43 µg/L, 21-day exposure, per surviving mother",31
same,#total live offspring,"[2]; DNF 1.43 µg/L, 21-day exposure, sum of all vessels",276
same,body burden,[2]; CW = 1.4 μg L^–1,6.9 mg kg^–1
same,removed fraction of accumulated body burden,[2],at least 99.57%
same,#average live offspring (depuration phase),[2]; [5],64
same,%offspring mortality (depuration phase),[2]; [5],3.38%
same,#total live offspring (depuration phase),"[2]; after DNF 1.43 µg/L exposure, 12-day depuration phase, sum of all vessels",257
same,observation of mother animal (depuration phase),"[2]; after DNF 1.43 µg/L exposure, vessel 8, depuration day 3",dead
